Measurements from patent US20230392153A1, “SUMO Targeting Morpholinos as both Enhancers of Anti-Cancer Effects of Chemotherapeutic Treatments and Preventative Agents Against the Establishment of Chemoresistance” (Board of Regents, The University of Texas System, priority 2022, published 2023).
{OctaGua} = octa-guanidine dendrimer (vivo-morpholino)

Tested on: mature mRNA transcripts derived from the SUMO2 gene, S2V1 and S2V2
Assay: qRT-PCR quantification of SUMO2 transcript variants (CNE100 ng) in A549 cells treated with vivo-morpholinos
Format: cell-based, human
Conditions: 4 μM, 24 hours
Description: Made to order vivo-morpholinos are readily available and can be procured from Gene Tools, LLC (Philomath, OR) based on specified embodiments of this disclosure, and reconstituted at a final concentration of 400 μM using RNase & DNase-free milli-Q water. The reconstituted vivo-morpholinos were kept in solution at room temperature. To test the vivo-morpholinos, A549 cells were seeded in 6 well plates at a density of 0.5×10^6 cells per well in a final volume of 3 mL per well. The day after cell seeding, the vivo-morpholinos were diluted down to a final concentration of 4 μM and a final volume of 2 mL using 1× Opti-MEM™ I (Thermo Fisher Scientific, Waltham, MA), the plating media was discarded using vacuum suction, and the diluted vivo-morpholinos were immediately added to the cells (2 mL per well). The cells were maintained in the presence of the vivo-morpholinos at 37° C. and 5% CO 2 for another 24 hours and subsequently the cells were collected and processed for RNA isolation. […] RNA quantification was performed using a NanoDrop™ One s Microvolume UV-Vis Spectrophotometer (Thermo Fisher Scientific). Upon quantification, the purified RNA was divided into 9 μL aliquots and stored at −80° C. until used for qRT-PCR. […]
CNE100 ng were calculated using the Cq values obtained in the qRT-PCR reactions indicated above and calibration curves generated using purified RNA produced in vitro corresponding to each of the segments targeted by the primer sets indicated above.
The primer sets used to quantify each of the SUMO2 mature mRNA transcripts are indicated below. […]
The experiments described above were performed four different times. […] In the three subsequent independent experiments, all samples were analyzed in triplicate and the averages were calculated. […]
Referring to FIG. 5, quantitative analysis of the SUMO2 transcript variants present in A549 cells under normal conditions as well as upon a 24 hour treatment with the vivo-morpholinos S2E3Acc and S2E3Don is presented. […]

Substance: S2E3Acc: Vivo-morpholino, SEQ ID NO: 3, 5′ CCTCATTGACAATCCCTGAACGAGA 3′; targets SUMO2 exon 3 at the splicing acceptor site (CCUCAUUGACAAUCCCUGAACGAGA; all phosphorodiamidate morpholino (PMO), 3' {OctaGua}, T or U not given here)
- effect on the proportion of S2V1:S2V2 present in the cell: significative changes
- decrease in the CNE100 ng of S2V1 (versus normal conditions (untreated)): ~10 fold

Substance: S2E3Don: Vivo-morpholino, SEQ ID NO: 4, 5′ GAGATTTTTTTACCTGTGCAGGTGT 3′; targets SUMO2 exon 3 at the splicing donor site (antisense GAGAUUUUUUUACCUGUGCAGGUGU; all phosphorodiamidate morpholino (PMO), 3' {OctaGua}, T or U not given here)
- effect on the proportion of S2V1:S2V2 present in the cell: significative changes
